Reference: ChEMBL document CHEMBL5608246, “Membrane-Targeting Amphiphilic Honokiol Derivatives Containing an Oxazole Moiety as Potential Antibacterials against Methicillin-Resistant Staphylococcus aureus” (J Med Chem, 2024)
Active and inactive are the calls of the source. The calls are words filed in the database; no cut-off is given here.

Columns and labels:
[1] = system: Cell membrane; assay: Induction of membrane permeability in methicillin resistant Staphylococcus aureus 20 at 16 to 64 ug/ml measured at 2 mins interval over 20 mins by SYTOX green staining based assay; conditions: dose 16-64 µg/ml
[2] = system: Staphylococcus aureus; assay: Upregulation of cidA gene expression in methicillin resistant Staphylococcus aureus N315 at 4 ug/ml incubated for 4 hrs by RNA-sequencing analysis; type: functional; conditions: dose 4.0 µg/ml
[3] = system: Cell membrane; assay: Induction of membrane disruption in methicillin resistant Staphylococcus aureus 20 assessed as viable cells with intact membrane at 16 ug/ml incubated for 2 hrs by SYTO9/PI staining based flow cytometry analysis (reference value: 98.7%); type: cell membranes; conditions: dose 16.0 µg/ml
[4] = system: Staphylococcus aureus; assay: Downregulation of srtA gene expression in methicillin resistant Staphylococcus aureus N315 at 4 ug/ml incubated for 4 hrs by RNA-sequencing analysis; type: functional; conditions: dose 4.0 µg/ml
[5] = system: Escherichia coli; assay: Antibacterial activity against Escherichia coli ATCC 25922 incubated for 16 to 18 hrs by broth dilution method; type: functional; conditions: time 16-18 hrs
[6] = Toxicity in Kunming mouse assessed as spleen abnormalities at 10 mg/kg, sc measured after 24 hrs; type: organism-based; conditions: in vivo
[7] = system: Staphylococcus aureus; assay: Antibacterial activity against methicillin resistant Staphylococcus aureus 20 incubated for 16 to 18 hrs in presence of 2 to 64 ug/ml phosphatidylglycerol by checkerboard broth dilution method; type: functional, organism-based; conditions: time 16-18 hrs
[8] = system: Cell membrane; assay: Induction of membrane disruption in methicillin resistant Staphylococcus aureus 20 assessed as viable cells with intact membrane at 8 ug/ml incubated for 2 hrs by SYTO9/PI staining based flow cytometry analysis (reference value: 98.7%); type: cell membranes; conditions: dose 8.0 µg/ml
[9] = system: Cell membrane; assay: Induction of membrane disruption in methicillin resistant Staphylococcus aureus 20 assessed as viable cells with intact membrane at 64 ug/ml incubated for 2 hrs by SYTO9/PI staining based flow cytometry analysis (reference value: 98.7%); type: cell membranes; conditions: dose 64.0 µg/ml
[10] = Toxicity in Kunming mouse assessed as change in red blood cell counts at 20 mg/kg, sc measured after 24 hrs; type: organism-based; conditions: in vivo
[11] = system: Staphylococcus aureus; assay: Upregulation of gpsB gene expression in methicillin resistant Staphylococcus aureus N315 at 4 ug/ml incubated for 4 hrs by RNA-sequencing analysis; type: functional; conditions: dose 4.0 µg/ml
[12] = system: Cell membrane; assay: Induction of membrane disruption in methicillin resistant Staphylococcus aureus 20 assessed as increase in red fluorescence signal incubated for 2 hrs by SYTO9/PI staining based flow cytometry analysis; conditions: dose 8-128 µg/ml
[13] = Toxicity in Kunming mouse assessed as change in platelet count at 20 mg/kg, sc measured after 24 hrs; type: organism-based; conditions: in vivo
[14] = system: Staphylococcus aureus; assay: Antibacterial activity against methicillin resistant Staphylococcus aureus 20 incubated for 16 to 18 hrs in presence of 2 to 64 ug/ml phosphatidylethanolamine by checkerboard broth dilution method; type: functional, organism-based; conditions: time 16-18 hrs
[15] = Toxicity in Kunming mouse assessed as skin abnormalities at 20 mg/kg, sc measured after 24 hrs; type: organism-based; conditions: in vivo
[16] = Toxicity in Kunming mouse skin abscess model infected with methicillin resistant Staphylococcus aureus assessed as spleen damage at 5 to 10 mg/kg, sc measured after 2 hrs by H and E staining based assay; type: organism-based; conditions: in vivo, dose 5-10 mg/kg
[17] = system: Staphylococcus aureus; assay: Antibacterial activity against methicillin resistant Staphylococcus aureus M20 incubated for 16 to 18 hrs by broth dilution method; type: functional; conditions: time 16-18 hrs
[18] = Toxicity in Kunming mouse assessed as skin redness at 40 to 80 mg/kg, sc measured after 24 hrs; type: organism-based; conditions: in vivo, dose 40-80 mg/kg
[19] = system: Cell membrane; assay: Induction of membrane disruption in methicillin resistant Staphylococcus aureus 20 assessed as membrane rupture at 16 times MIC incubated for 4 hrs by SEM analysis
[20] = system: Staphylococcus aureus; assay: Bactericidal activity against Staphylococcus aureus ATCC 29213 at 8 times MIC within 6 hrs by time kill assay; type: functional, organism-based
[21] = system: Staphylococcus aureus; assay: Inhibition of enzyme activity in methicillin resistant Staphylococcus aureus N315 at 4 ug/ml incubated for 4 hrs by RNA-sequencing analysis; type: functional, organism-based; conditions: dose 4.0 µg/ml
[22] = Toxicity in Kunming mouse assessed as liver abnormalities at 10 mg/kg, sc measured after 24 hrs; type: organism-based; conditions: in vivo
[23] = system: Staphylococcus aureus; assay: Inhibition of protein synthesis in methicillin resistant Staphylococcus aureus N315 at 4 ug/ml incubated for 4 hrs by RNA-sequencing analysis; type: functional, organism-based; conditions: dose 4.0 µg/ml
[24] = system: Staphylococcus aureus; assay: Downregulation of sasA gene expression in methicillin resistant Staphylococcus aureus N315 at 4 ug/ml incubated for 4 hrs by RNA-sequencing analysis; type: functional; conditions: dose 4.0 µg/ml
[25] = Toxicity in Kunming mouse assessed as change in mean corpuscular volume at 20 mg/kg, sc measured after 24 hrs; type: organism-based; conditions: in vivo
[26] = system: Staphylococcus aureus; assay: Antibacterial activity against methicillin resistant Staphylococcus aureus M17 incubated for 16 to 18 hrs by broth dilution method; type: functional; conditions: time 16-18 hrs
[27] = system: Cell membrane; assay: Induction of membrane disruption in methicillin resistant Staphylococcus aureus 20 assessed as increase in intracellular ROS level incubated for 1 hr by DCFH-DA staining based analysis; type: cell membranes; conditions: dose 2-128 µg/ml
[28] = Cytotoxicity against human L02 cells assessed as survival rate at 16 ug/ml incubated for 24 hrs by CCK8 assay; type: toxicity, cell-based; conditions: at 16 µg/mL, read-out: Survival
[29] = system: Cell membrane; assay: Induction of membrane disruption in methicillin resistant Staphylococcus aureus 20 assessed as wrinkled membrane at 16 times MIC incubated for 4 hrs by SEM analysis; type: cell membranes
[30] = system: Staphylococcus aureus; assay: Antibacterial activity against methicillin resistant Staphylococcus aureus M16 incubated for 16 to 18 hrs by broth dilution method; type: functional; conditions: time 16-18 hrs
[31] = system: Staphylococcus aureus; assay: Inhibition of methionine synthesis in methicillin resistant Staphylococcus aureus N315 at 4 ug/ml incubated for 4 hrs by RNA-sequencing analysis; type: functional, organism-based; conditions: dose 4.0 µg/ml
[32] = system: Staphylococcus aureus; assay: Antibacterial activity against methicillin resistant Staphylococcus aureus M13 incubated for 16 to 18 hrs by broth dilution method; type: functional; conditions: time 16-18 hrs
[33] = Toxicity in Kunming mouse skin abscess model infected with methicillin resistant Staphylococcus aureus assessed as heart damage at 5 to 10 mg/kg, sc measured after 2 hrs by H and E staining based assay; type: organism-based; conditions: in vivo, dose 5-10 mg/kg
[34] = system: Staphylococcus aureus; assay: Antibacterial activity against methicillin resistant Staphylococcus aureus 20 incubated for 16 to 18 hrs in presence of 32 ug/ml cardiolipin by checkerboard broth dilution method; type: functional; conditions: time 16-18 hrs
[35] = system: Staphylococcus aureus; assay: Antibacterial activity against methicillin resistant Staphylococcus aureus N315 incubated for 16 to 18 hrs by broth dilution method; type: functional; conditions: time 16-18 hrs
[36] = system: Staphylococcus aureus; assay: Antibacterial activity against methicillin resistant Staphylococcus aureus 20 infected in Kunming mouse skin abscess model assessed as reduction in inflammatory cell infiltration in subcutaneous layer at 10 mg/kg, sc measured after 2 hrs; type: functional, organism-based
[37] = system: Cell membrane; assay: Induction of membrane disruption in methicillin resistant Staphylococcus aureus 20 assessed as DNA leakage incubated for 4 hrs by microspectrophotometer analysis; type: cell membranes; conditions: dose 2-16 µg/ml
[38] = system: Staphylococcus aureus; assay: Antibacterial activity against methicillin resistant Staphylococcus aureus M22 incubated for 16 to 18 hrs by broth dilution method; type: functional; conditions: time 16-18 hrs
[39] = system: Staphylococcus aureus; assay: Antibacterial activity against Staphylococcus aureus ATCC 29213 incubated for 16 to 18 hrs by broth dilution method; type: functional; conditions: time 16-18 hrs
[40] = system: Staphylococcus aureus; assay: Antibacterial activity against methicillin resistant Staphylococcus aureus 20 infected in Kunming mouse skin abscess model assessed as reduction in bacterial load at 10 mg/kg, sc measured after 2 hrs; type: functional; set-up: scale not given: the % may be the effect or the level left

C=CCc1cc(-c2ccc(OCCC[N+](C)(C)CC(=O)NCCCC)c(CC=C)c2)c2oc(-c3c(Cl)cccc3Cl)nc2c1.[Br-]
Activity [1]: Active | Activity [2]: Active | Activity [3]: 0.17% | Activity [4]: Active | MIC [5]: 128 µg/mL | Activity [6]: Non-Toxic | Activity [7]: inactive | Activity [8]: 61.6% | Activity [9]: 0.28% | Activity [10]: Non-Toxic | Activity [11]: Active | Activity [12]: Dose-Dependent Effect | Activity [13]: Non-Toxic | Activity [14]: Active | Activity [15]: Non-Toxic | Activity [16]: Non-Toxic | MIC [17]: 2 µg/mL | Activity [18]: Toxic | Activity [19]: Active | Activity [20]: Active | Activity [21]: Active | Activity [22]: Non-Toxic | inhibition [23]: Active | Activity [24]: Active | Activity [25]: Non-Toxic | MIC [26]: 2 µg/mL | Activity [27]: Dose-Dependent Effect | viability at 24 h, 16 ug/ml [28]: 75% | Activity [29]: Active | MIC [30]: 2 µg/mL | inhibition [31]: Active | MIC [32]: 8 µg/mL | Activity [33]: Non-Toxic | MIC [34]: 32 µg/mL | MIC [35]: 4 µg/mL | Activity [36]: Active | Activity [37]: Dose-Dependent Effect | MIC [38]: 2 µg/mL | MIC [39]: 2 µg/mL | Activity [40]: 96.63%
